# A melting point compilation (Tetko et al.; mined from patent text by program, amines drawn as free bases though some values may be those of a salt)
row,SMILES,melting point
1,Cc1c(N2CC(COC(=O)C(C)C)C(COC(=O)C(C)C)C2)c(F)cc2c(=O)c(C(=O)O)cn(C3CC3)c12 (stereo unspecified),141 to 143 °C
2,Cc1cc2cc(CN3CCCC3)cnc2cc1NC(=O)c1ccc(-c2ccc(F)cc2F)cc1,158 to 160 °C
3,CN(C1CCCCC1)S(=O)(=O)c1ccc(CCSn2cnc3ccccc32)cc1,60 to 63 °C
4,Cc1ccc(-c2cc(OCC(=O)N3CCOCC3)c3c(Cl)cccc3n2)cc1,170 °C
5,CSc1nc2ccccc2n2cc(-c3ccccc3)cc12,132 °C
6,c1ccc2c(c1)ccc1c(-c3ccncc3)[nH]nc12,271 to 273 °C
7,COC(=O)c1ccc(C(F)(F)F)cc1C#N,52 °C
8,COC(=O)Nc1ccc(NC(=O)CN(C)C)c(N)c1,140 to 142 °C
9,CC1(C)CCC(C)(C)c2cc(-c3cc(-c4ccc(C=O)cc4)ccc3-c3ccccc3)ccc21,120 to 122 °C
10,Cc1cc(C2=NOC(c3cc(Cl)cc(Cl)c3)(C(F)(F)F)C2)ccc1C(=O)NCC(F)(F)F (stereo unspecified),156 to 157 °C
11,O=C(Nc1ccccc1)Nc1cnc(-c2ccccc2)nc1-c1ccccc1Cl,195 to 198 °C
12,COc1cc(OC)nc(C(=O)NS(=O)(=O)NC(C)C)n1,167 to 169 °C
13,O=C(O)CCC(=O)N1CCN2C(=O)OC(c3ccccc3)(c3ccccc3)C2C1 (stereo unspecified),158 to 164 °C
14,NC(=O)CCn1c2ccc(O)cc2c2c3c(c(-c4c(Cl)cccc4Cl)cc21)C(=O)NC3=O,327 to 329 °C
15,COc1ccc2c(Cl)nc(C(=O)NCCO)c(O)c2c1,117 to 119 °C
16,Cc1oc(-c2ccccc2)nc1COc1cncc(CCl)c1,98 to 99 °C
17,N#CC(C#N)=CN(N=C(C#N)C#N)c1ccc(Br)cc1,191 to 192 °C
18,CON=C1C(C)(C)c2cc3c(cc2C1(C)C)N(SCc1nccc(OC)c1C)CN3,100 °C
19,CCCc1nnc(/C=C/c2cn(Cc3ccccc3)nc2OCc2ccc(OCc3nc(-c4ccco4)oc3C)c(OC)c2)o1,146 to 147 °C
20,Cc1cc(NC(=O)Nc2c(C)cccc2C)no1,200 °C
21,CC[C@@]1(O)C(=O)OCc2c1cc1n(c2=O)Cc2c-1nc1ccc(Cl)c3c1c2C(NC(C)=O)CN3 (stereo partly specified),250 to 270 °C
22,[N-]=[N+]=NCc1cc(=O)c(OCc2ccccc2)cn1Cc1ccccc1,120 °C
23,O=c1[nH]nc(-c2ccccc2[N+](=O)[O-])o1,157 to 158 °C
24,COC(C)(C)O[C@@H]1C(=O)N(C(=O)OC(C)(C)C)[C@@H]1c1ccccc1 (relative stereo),90 to 92 °C

row,SMILES,melting point
1,CC(NCC(O)c1cc(Cl)c(N)c(Cl)c1)C1CCCCC1 (stereo unspecified),106 to 108 °C
2,CCC1c2ccc(C)n2-c2ccc(F)cc2N1S(=O)(=O)c1ccc(O)c(C)c1 (stereo unspecified),199 to 201 °C
3,O=c1oc(-c2cccc(Cl)c2)nc2ccccc12,158 to 160 °C
4,COc1cc(Cl)nn2c(-c3ccnc(N)c3)c(-c3ccc(F)c(C)c3)nc12,200 to 201 °C
5,N#CC(N)=C(C#N)N=Cc1c(Cl)cc(C(F)(F)F)cc1Cl,218 to 219 °C
6,CCCCc1ccc(-c2[nH]c(=O)n(C3CCCCC3)c2C)cc1,236 °C
7,O=C1N=NC(=O)N1c1c(F)c(F)c(F)c(F)c1F,88 to 91 °C
8,CC[C@H](C)[C@H](NC(=O)OCc1ccccc1)C(=O)N[C@@H](C=O)Cc1c[nH]c2ccccc12,163 to 164 °C
9,CC1COc2c(C3CC3)c(F)c(N)c3c(=O)c(C(=O)O)cn1c23 (stereo unspecified),> 280 °C
10,CCOCCOc1ccc(-c2nc(C(=O)Nc3nccs3)c(-c3ccc(Cl)cc3)[nH]2)cc1,115 °C
11,COCCN(C(=O)c1cnc(N2CC(C)(C)NC2=O)nc1N)c1cccc(C(F)(F)F)c1,192 to 193 °C
12,O=C(Nc1ccc(O)cc1)C(=O)N1CCC(Cc2ccc(F)cc2)CC1,98 to 100 °C
13,O=C(Cc1ccccc1Nc1c(Cl)cccc1Cl)OCCc1ccccn1,67 to 68 °C
14,CC(C)(C)OC(=O)c1[nH]c2cc(Cl)cc(Cl)c2c1C=C1CON(c2ccccc2)C1=O,120 °C
15,COP(=O)(OC)C(C)(C)O,75 to 77 °C
16,CS(=O)(=O)c1ccc(-c2cnn(CC(F)(F)F)c(=O)c2Oc2cc(C(F)(F)F)ccc2F)cc1,133 to 135 °C
17,COc1ccc2c(c1)c(CC(=O)OCC(=O)O)c(C)n2C(=O)c1ccc(C(F)(F)F)cc1,166 to 167 °C
18,COc1ccc2c(n1)C1(CO2)C(=O)N(Cc2ccccn2)c2ccccc21 (stereo unspecified),168 to 171 °C
19,N=C(N)NCCC[C@H](NC(=O)CNC(=O)C(CS)Cc1ccccc1)C(=O)O (stereo partly specified),120 to 137 °C
20,Fc1ccc2c(c1)C1=NCCN1C(Cl)=N2,209 to 211 °C
21,C=CCNC(=O)C(C#N)C(=O)C1CC1 (stereo unspecified),72 to 73.5 °C
22,Cc1ccc2oc(=O)c(NC(=O)Nc3ccc(F)cc3F)c(-c3ccccc3C)c2c1,213 to 214 °C
23,Oc1ccnc2ncnn12,290 °C
24,COc1ccc2c(c1)CC(C)CC2=O (stereo unspecified),70.5 to 70.6 °C

row,SMILES,melting point
1,CNC(=O)[C@H]1CN(c2cc(F)c3c(c2)CCC(=O)N3C)C(=O)O1,264 to 265 °C
2,CCc1nc2c(C)nc(C)nc2n1-c1ccc(CCOC(=O)NS(=O)(=O)c2ccc(C)cc2)cc1,162 °C
3,O=C(O)c1cc([N+](=O)[O-])cc([N+](=O)[O-])c1Nc1cc(-c2ccccc2)ccc1O,215 to 217 °C
4,CC(=O)Nc1ccc(C=CC(=O)C(C)CC(=O)O)cc1 (stereo unspecified),189 to 190 °C
5,CC(=NO)c1cnc2c(NC(=O)c3c(Cl)cccc3Cl)cccc2c1,215 to 243 °C
6,CSc1ccc(C(=CN(C)C)C(C)=O)cc1,89 to 91 °C
7,CCCCc1ccc(CC(N)C(=O)O)cc1 (stereo unspecified),218 to 223 °C
8,CC(C)CC(NC(=O)c1cc(F)ccc1SSc1ccc(F)cc1C(=O)NC(CC(C)C)C(=O)O)C(=O)O (stereo unspecified),246 to 247 °C
9,CCn1ncc2c1ncc1c(=O)n(CCN3CCOCC3)c3cc(C)nn3c12,140 to 141 °C
10,CN(c1cc(Cl)ccc1C(=O)O)S(C)(=O)=O,161 to 164 °C
11,COc1cc(C(C)=O)ccc1OCCCN1CCC(c2n[nH]c3cc(F)ccc23)CC1,202 to 204 °C
12,Cc1cc(C(=O)C2CCc3nc[nH]c3C2)c2ccccn12 (stereo unspecified),219 to 221 °C
13,CC(C)(C)OC(=O)Nc1ccc(C#Cc2ccccn2)cc1N,178 °C
14,CCCCc1ncc(C(=O)OCC)c(NCc2ccc(-c3ccccc3-c3nnn[nH]3)cc2)n1,153 to 155 °C
15,CC(=O)NC[C@H]1CN(c2ccc(C3=CCCCO3)c(F)c2)C(=O)O1,161 to 163 °C
16,O=c1nc(-c2cccc(Cl)c2)c2cc(C(c3ccc(Cl)cc3)n3ccnc3)ccc2n1Cc1ccncc1 (stereo unspecified),61.4 °C
17,Oc1ccc(-c2cnc(S)o2)cc1O,215 to 218 °C
18,O=C1c2c(Cl)cc(Cl)c(Cl)c2C(=O)N1c1ccccc1,199 to 200 °C
19,Cc1cc(C)c2nc(N(CC(C)N3CCOCC3)C3CCNCC3)n(Cc3nc(C)ccc3O)c2c1 (stereo unspecified),223 °C
20,CCOc1nsc(NC(=O)Oc2ccccc2)c1C#N,252 to 253 °C
21,O=C1NCCc2c1c1cccc(F)c1n2COCc1ccccc1,130 to 132 °C
22,CCCC=Cc1c(C(C)C)cc(C(C)C)c(CO)c1-c1ccc(F)cc1,85 to 95 °C
23,CCCCn1c(-c2ccc(Cl)c(S(=O)(=O)N(C)C)c2)csc1=Nc1ccccc1C,104 °C
24,Cn1nc(C#N)c(Nc2ccc(Cl)cc2[N+](=O)[O-])n1,166 to 168 °C

row,SMILES,melting point
1,O=C1CC(c2cccc(-n3ccnc3)c2)=Nc2ccc(C#Cc3ccc(F)cc3)cc2N1,216 to 218 °C
2,COc1ccc2c(c1)S(=O)(=O)C(C(=O)Nc1ccc(F)cc1)C(=O)N2C (stereo unspecified),202 to 204 °C
3,CC1C(=O)N(c2ccccc2)C(=S)N1c1ccc(Oc2ccccc2Cl)cc1 (stereo unspecified),108 °C
4,C[C@@H]1O[C@](C#CC2CC2)(C(F)(F)F)c2cc(Cl)ccc2NC1=O,145 to 146 °C
5,CC1(C)C2CC(=O)C(CCC(=O)O)C1C2 (stereo unspecified),45 °C
6,CCCCCCCCOC(=O)CCc1cc(C(C)(C)C)c2oc(-c3ccc(-c4nc5cc(CCC(=O)OCCCCCCCC)cc(C(C)(C)C)c5o4)s3)nc2c1,68 to 70 °C
7,COc1ccc(S(=O)(=O)C(CCc2ccccc2)CC(=O)O)cc1OC (stereo unspecified),161 to 162 °C
8,CCCCCCOCCOc1ccc(-c2ccc3c(c2)C=C(C(=O)Nc2ccc(CN(C)C4CCOCC4)cc2)CCS3(=O)=O)cc1,180 to 182 °C
9,Cn1c(COc2ccc(CC3SC(=O)N(C(c4ccccc4)(c4ccccc4)c4ccccc4)C3=O)cc2)nc2ccc(Cl)nc21 (stereo unspecified),97 to 99 °C
10,CN1CC(C(=O)N(C)C(Cc2ccc(Cl)cc2)Cc2ccc(Cl)cc2)=C(O)C1=O,152 to 154 °C
11,CC1(C)C=C(c2ccccc2)c2ccccc2N1,79.5 to 81 °C
12,O=C(O)CN(C(=O)CCc1nc2c(F)c(F)cc(F)c2s1)c1ccccc1,121 to 124 °C
13,CC1CCc2c(c(OCc3ccccn3)nn3c(-c4ccccc4)nnc23)C1 (stereo unspecified),152 to 154 °C
14,N#Cc1ccc2c(C#N)c3cc(C#N)ccc3c(C#N)c2c1,345 °C
15,Cc1nc[nH]c1CSCCN=C(NC#N)NCCN,164 to 167 °C
16,CCCc1c(OCCCOc2ccc3c(c2CCC)OC(CCC(=O)O)CC3=O)ccc(C(C)=O)c1O (stereo unspecified),149 to 150 °C
17,COC(=O)c1cc(N)c(N(C)C(C)=O)c(N)c1,120 °C
18,CCN(CC)c1ccc(-c2cc(-c3ccc(C(=O)O)cc3)ccc2OCCCCO)cc1C(C)(C)C,165 °C
19,CC(C)(C)C1OC1C(O)c1ccc(C(F)(F)F)cc1 (stereo unspecified),74 to 75 °C
20,COC(=O)c1nn(C2CCCCO2)cc1NC(=O)c1cc(Cl)ccn1 (stereo unspecified),201 to 203 °C
21,CN1C(O)=C(C(=O)Nc2ccccc2Cl)c2cscc2S1(=O)=O,152 to 155 °C
22,COc1c(S(=O)(=O)Cl)ccc(Cl)c1CBr,88 to 92 °C
23,Brc1cn(C(c2ccccc2)(c2ccccc2)c2ccccc2)nc1-c1ccccc1,181 to 183 °C
24,O=c1ccn([C@@H]2C[C@H](O)[C@@H](O)[C@H]2O)cc1 (racemic),186 to 188 °C
